Measured values as given in PubChem BioAssay (NCI).
Values joined by “and” are separate entries in the source; they are usually repeats but may differ in a detail not shown here. Identical values can stand only once.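 Method: 48-hour compound exposure of cells in 96-well plates, five concentrations, linear interpolation of endpoints. Here, GI50 denotes the concentration required for 50% inhibition of growth. The concentration for full growth arrest is given as TGI.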

Legend:
Test in all cases: NCI tumour cell line growth inhibition, 48 h
DMS 273 small cell lung = tested on: DMS 273 small cell lung
KM20L2 colon = tested on: KM20L2 colon
HOP-18 NSCLC = tested on: HOP-18 NSCLC
DLD-1 colon = tested on: DLD-1 colon
LXFL 529 NSCLC = tested on: LXFL 529 NSCLC
M19-MEL melanoma = tested on: M19-MEL melanoma
XF 498 CNS = tested on: XF 498 CNS
RXF-631 renal = tested on: RXF-631 renal
MDA-N = tested on: MDA-N

SMILES | GI50 (DMS 273 small cell lung) [µM] | TGI (DMS 273 small cell lung) [µM] | GI50 (KM20L2 colon) [µM] | TGI (KM20L2 colon) [µM] | GI50 (HOP-18 NSCLC) | TGI (HOP-18 NSCLC) [µM] | GI50 (DLD-1 colon) [µM] | TGI (DLD-1 colon) [µM] | GI50 (LXFL 529 NSCLC) | TGI (LXFL 529 NSCLC) | GI50 (M19-MEL melanoma) [µM] | TGI (M19-MEL melanoma) [µM] | TGI (XF 498 CNS) [µM] | TGI (RXF-631 renal) [µM] | TGI (MDA-N) [µM]
[O-][Cl+3]([O-])([O-])[O-].[O]=[Ru]=[O].c1ccc(-c2ccccn2)nc1.c1ccc(-c2ccccn2)nc1 | 22.4 | > 100 | > 100 | > 100 | > 100 µM | > 100 | > 100 | > 100 | 41300 nM | > 100 µM | > 100 | > 100 | – | – | –
CCCCCCCCCCCCNC(=S)OC | – | 29.3 | – | 30 | – | 32.3 | – | 28.9 | – | 28.2 µM | – | 32.7 | 30.6 | – | –
COc1cc2c(cc1OC)C(Cl)C(c1ccc(F)cc1)=C2Cl (stereo not drawn) | – | 31.9 | – | 28 | – | 30.5 | – | 32.9 | – | 24 µM | – | 38.7 | – | – | –
O=c1[nH]c(-c2ccccc2)nc2cc(Cl)ccc12 | – | > 100 | – | > 100 | – | – | – | > 100 | – | > 100 µM | – | > 100 | > 100 | > 100 | –
Cc1[cH-]c(=O)n(-c2ccccc2)n1.[Au+].[Au].c1ccc([PH+](c2ccccc2)c2ccccc2)cc1.c1ccc([PH+](c2ccccc2)c2ccccc2)cc1 | 10.3 | 30.7 | 66.7 | > 100 | 4.06 µM and 10.3 µM | 27 | 15.7 | 41.5 | 488 nM and 1090 nM | 2.38 µM and 3.55 µM | 28.1 | > 100 | – | – | –
O=C1c2ccccc2C(=O)c2c(/C=C\N3CCCCC3)ccnc21 | – | 10.4 | – | 32.6 | – | 2.96 | – | 15.8 | – | 15 µM | – | 0.563 | 27.2 | > 45.8 | 0.352
CCOC(=O)C1=C(C)N(NC(=O)Nc2ccccc2)C2(N)N(NC(=O)Nc3ccccc3)C(C)=C(C(=O)OCC)C12C(=O)OCC (stereo not drawn) | – | > 100 | – | > 100 | – | 54.6 | – | > 100 | – | > 100 µM | – | > 100 | 37.9 | > 100 | –
Br[Se]c1ccccn1 | – | – | – | – | – | – | – | – | – | – | – | – | – | – | 32.2
O=C(Nc1nc(=S)[nH][nH]1)C(=O)C(C(=O)c1ccc2ccccc2c1)C1OC(=O)c2ccccc21 (stereo not drawn) | – | 87.5 | – | > 100 | – | 40.2 | – | 44.6 | – | 52.7 µM | – | 30.6 | 41.9 | 77.6 | –
CC1(C)CC(c2c[nH]c3ccccc23)=CC2=Nc3ccccc3C21O (stereo not drawn) | – | > 100 | – | > 100 | – | – | – | > 100 | – | > 100 µM | – | > 100 | > 100 | – | –
CCOc1ccc(NC2=CC(=O)C(=O)c3ccccc32)cc1 | – | 8.01 | – | 36.7 | – | 4.61 | – | 21.7 | – | 11.2 µM | – | 2.03 | 5.31 | – | 3.94
S=P1(Oc2ccccc2)NNP2(=NP(N3CC3)(N3CC3)=NP(N3CC3)(N3CC3)=N2)NN1 (stereo not drawn) | – | > 100 | – | – | – | > 100 | – | > 100 | – | > 100 µM | – | > 100 | > 100 | > 100 | –
O=C1C(C(Nc2ccccc2)c2ccccc2)=C([O-])c2ccccc21.O=C1C(C(Nc2ccccc2)c2ccccc2)=C([O-])c2ccccc21.[Cu+2] (stereo not drawn) | 26.3 | > 100 | 52.5 | > 100 | > 100 µM | > 100 | 34.6 | > 100 | – | – | > 100 | > 100 | – | – | –
COc1c(CC(C)=O)ccc2c1C(=O)c1ccc(C=O)c(OC(C)=O)c1C2=O | – | 24.5 | – | 37.8 | – | 40.6 | – | 14.3 | – | 19.4 µM | – | – | – | 47.8 | –
C=C(C)C(=O)O[C@@H]1C[C@@]2(C)O[C@@H]2C[C@H](O)/C(C)=C/[C@H]2OC(=O)C(=C)[C@@H]21 | – | – | – | – | – | – | – | – | – | – | – | – | – | – | > 100
Clc1ccc2cccc3c2c1C1OC3c2ccccc21 (stereo not drawn) | – | > 100 | – | > 100 | – | > 100 | – | > 100 | – | > 100 µM | – | > 100 | > 100 | – | –
C[C@@H]1CC[C@H]2C(C)(C)[C@H]3C[C@@]12CC[C@@]3(C)O | – | – | – | – | – | – | – | – | – | – | – | – | – | – | > 100
O=C(/C=C/c1c(O)ccc2ccccc12)c1ccc([N+](=O)[O-])cc1 | – | > 100 | – | > 100 | – | 47.6 | – | 40.8 | – | 30.4 µM | – | 35.4 | > 100 | – | –
